# PMC8395767, “Worsening of the Toxic Effects of (±)Cis-4,4′-DMAR Following Its Co-Administration with (±)Trans-4,4′-DMAR: Neuro-Behavioural, Physiological, Immunohistochemical and Metabolic Studies in Mice” (International Journal of Molecular Sciences, 2021)
# Marks after values point to notes of the source that are not given here.
# Legend:
# mice [1] = test: Psychomotor agitation (observational behavioural test); assay type: in vivo
# Description: The effects of (±)cis-4,4′-DMAR, (±)trans-4,4′-DMAR and their co-administration were investigated by a protocol widely used in studies of “safety pharmacology” for the preclinical characterization of new molecules in rodents. This protocol includes a series of observational behavioural tests carried out in a consecutive manner that monitor the animal responses up to 5 h after compound injections. In the present study, we reported the observation of physiological (sweating, salivation, core temperature) and neuro-behavioural (detection of psychomotor agitation, spontaneous and stimulated aggressiveness, convulsions) changes occurring in mice after injection of (±)cis-4,4′-DMAR, (±)trans-4,4′-DMAR and their co-administration. Before pharmacological treatment the mouse was placed on a square plate (30 cm× 30 cm) raised from the ground (20 cm) and left free to move on the plate for 10 min (habituation period). The animal was then injected with the vehicle, substances alone ((±)cis-4,4′-DMAR or (±)trans-4,4′-DMAR) or in cis + trans co-administration and placed on the plate. From this moment, the recording time of the physiological and neuro-behavioural responses started, and these were detected in 5-min sessions.
# After the first 5 min, the animal was removed from the plate; the body core temperature was then measured, and the aggression tests were performed. The 5-min observation period was repeated at 15–30–60–90–120–180–240–300. Psychomotor agitation in the mouse was not simply related to an increase in spontaneous locomotion itself, but by an “unusual hyperactivity” which was characterised by rapid and sudden horizontal displacements in all directions, sustained turning behaviour, involuntary falls from the high plate during the evaluation of the tests, stereotyped movements and rearing activity. Mouse sweating and salivation were reported only if present or not. The core temperature was determined using a probe (1 mm diameter) that was gently inserted after lubrication with liquid Vaseline into the rectum of the mouse (to about 2 cm) and left in position until the temperature stabilised (about 10 s). The probe was connected to a digital thermometer. Spontaneous aggressive response was measured based on the number of times a mouse bit a grey cloth put in front of its snout. During the test, each mouse was free to move within the cage. In the case of stimulated aggressiveness, each mouse was manually restrained and held in a supine position following which an object was brought near the mouth. For both spontaneous and stimulated aggressive behaviour tests, a grey cloth was placed in front of the nose of each mouse 10 consecutive times (score 0/10 not aggressive, score 10/10 very aggressive). Convulsions were defined as a loss of righting reflexes for at least 5 s, combined with the presence of body tremors and clonic or tonic limb movements. Deaths caused by 4-4’-DMAR injection occurring during the observation period (5 h) were also reported as frequency (%) and time of death (min). Experiments were conducted inside the LARP (Centralised Preclinical Research Laboratory, University of Ferrara, Ferrara, Italy) in a thermo-stated (temperature 20–22 °C, humidity about 45–55%) and light controlled (about 150 lux) room, in which there was a background noise of about 40 ± 4 dB. The experiments, conducted in blind by trained observers working together in pairs, were videotaped and eventually analysed off-line by a different trained operator. The experiments were performed between 8:30 a.m. and 2:00 p.m.
# Sweating and salivation were expressed as frequency (e.g., % of animals that developed symptoms); psychomotor agitation was expressed as frequency (% of animals) and duration (total time in mins). Core temperature values were expressed as the difference between control temperature (before injection) and temperature following drug administration (Δ°C). […]
# mice [2] = test: Physiological and neuro-behavioural responses, all parameters (safety pharmacology protocol); assay type: in vivo
# Description: The effects of (±)cis-4,4′-DMAR, (±)trans-4,4′-DMAR and their co-administration were investigated by a protocol widely used in studies of “safety pharmacology” for the preclinical characterization of new molecules in rodents. This protocol includes a series of observational behavioural tests carried out in a consecutive manner that monitor the animal responses up to 5 h after compound injections. […] From this moment, the recording time of the physiological and neuro-behavioural responses started, and these were detected in 5-min sessions.
# After the first 5 min, the animal was removed from the plate; the body core temperature was then measured, and the aggression tests were performed. […] The core temperature was determined using a probe (1 mm diameter) that was gently inserted after lubrication with liquid Vaseline into the rectum of the mouse (to about 2 cm) and left in position until the temperature stabilised (about 10 s). […] Spontaneous aggressive response was measured based on the number of times a mouse bit a grey cloth put in front of its snout. […] The experiments, conducted in blind by trained observers working together in pairs, were videotaped and eventually analysed off-line by a different trained operator. […]
# [3] = 10 mg/kg i.p., n=4 mice (animals of the urine excretion study)
smiles,measurement,setting,value
"Cc1ccc(C2OC(N)=NC2C)cc1 (stereo not drawn) [cis-4,4’-DMAR, 4-methyl-5-(4-methylphenyl)-4,5-dihydrooxazol-2-amine]",Psychomotor agitation Frequency % (n° of mice),"mice [1]; 1 mg/kg i.p., n=6 mice",ineffective
same,Psychomotor agitation Duration,"mice [1]; 3 mg/kg i.p., n=6 mice",54.2 ± 10.30 min
same,Psychomotor agitation Frequency % (n° of mice),"mice [1]; 3 mg/kg i.p., n=6 mice",100% (6)
same,Psychomotor agitation Latency,"mice [1]; 3 mg/kg i.p., n=6 mice",61.2 ± 6.30 min
same,"Psychomotor agitation, start of effect","mice [1]; 10 mg/kg alone, mice",about thirty
same,Psychomotor agitation Duration,mice [1]; [3],125.0 ± 10.12 min
same,Psychomotor agitation Frequency % (n° of mice),mice [1]; [3],100% (4)
same,Psychomotor agitation Latency,mice [1]; [3],26.4 ± 6.25 min
same,Psychomotor agitation Duration,"mice [1]; 10 mg/kg i.p., n=6 mice",121.0 ± 12.35 min
same,Psychomotor agitation Duration (min),"mice [1]; 10 mg/kg i.p., n=6 mice",121.0 ± 12.35 ^a min
same,Psychomotor agitation Frequency % (n° of mice),"mice [1]; 10 mg/kg i.p., n=6 mice",100% (6)
same,Psychomotor agitation Latency,"mice [1]; 10 mg/kg i.p., n=6 mice",28.2 ± 7.20 min
same,Psychomotor agitation Latency (min),"mice [1]; 10 mg/kg i.p., n=6 mice",28.2 ± 7.20 ^a min
same,Psychomotor agitation Frequency % (n° of mice),"mice [1]; 10 mg/kg i.p., n=6 mice, listed as (±)cis-4,4′-DMAR",100%
same,Psychomotor agitation Duration (min),"mice [1]; 30 mg/kg i.p., n=6 mice",235.1 ± 15.25 ^ab min
same,Psychomotor agitation Frequency % (n° of mice),"mice [1]; 30 mg/kg i.p., n=6 mice",100% (6)
same,Psychomotor agitation Latency (min),"mice [1]; 30 mg/kg i.p., n=6 mice",3.2 ± 0.25 ^ab min
same,Psychomotor agitation Duration (min),"mice [1]; 60 mg/kg i.p., n=6 mice",280.1 ± 12.35 ^ab min
same,Psychomotor agitation Frequency % (n° of mice),"mice [1]; 60 mg/kg i.p., n=6 mice",100% (6)
same,Psychomotor agitation Latency,"mice [1]; 60 mg/kg i.p., n=6 mice",2.2 ± 0.15 min
same,Psychomotor agitation Latency (min),"mice [1]; 60 mg/kg i.p., n=6 mice",2.2 ± 0.15 ^ab min
same,"Psychomotor agitation, dose range in which the effect was significant","mice [1]; i.p., mice, tested 0.1–60 mg/kg",3 to 60 mg/kg
"Cc1ccc(C2OC(N)=NC2C)cc1 (stereo not drawn) [trans-4,4’-DMAR, 4-methyl-5-(4-methylphenyl)-4,5-dihydrooxazol-2-amine]",Physiological and neuro-behavioural changes,"mice [2]; 30 and 60 mg/kg, systemic administration",did not induce any physiological and neuro-behavioural changes
same,"Physiological and neuro-behavioural parameters, all parameters studied",mice [2]; lower doses of 0.1 and 1 mg/kg,inactive
